Experiment: xn = mol fraction of the nth substance listed
Conditions: Liquid, Vibrating tube method

CCCCCCCCCCC [undecane] + CCCCCCC
Conditions	mass density [kg/m3]
323.12 K, 7000 kPa, x2 = 0.7482	685.4
323.12 K, 8000 kPa, x2 = 0.7482	686.4
323.12 K, 8001 kPa, x2 = 0.05	722.8
323.12 K, 9000 kPa, x2 = 0.05	723.6
323.12 K, 9000 kPa, x2 = 0.7482	687.3
323.12 K, 10000 kPa, x2 = 0.05	724.5
323.12 K, 10000 kPa, x2 = 0.7482	688.3
323.12 K, 11000 kPa, x2 = 0.05	725.3
323.12 K, 11000 kPa, x2 = 0.7482	689.2
323.12 K, 12000 kPa, x2 = 0.05	726.1
323.12 K, 12000 kPa, x2 = 0.7482	690.1
323.12 K, 13000 kPa, x2 = 0.05	726.8
323.12 K, 13000 kPa, x2 = 0.7482	691.1
323.12 K, 14000 kPa, x2 = 0.05	727.6
323.12 K, 14000 kPa, x2 = 0.7482	691.9
323.12 K, 15000 kPa, x2 = 0.05	728.4
323.12 K, 15000 kPa, x2 = 0.7482	692.8
323.12 K, 16000 kPa, x2 = 0.05	729.1
323.12 K, 16000 kPa, x2 = 0.7482	693.7
323.12 K, 17000 kPa, x2 = 0.05	729.9
323.12 K, 17000 kPa, x2 = 0.7482	694.5
323.12 K, 18000 kPa, x2 = 0.05	730.6
323.12 K, 18000 kPa, x2 = 0.7482	695.4
323.12 K, 19000 kPa, x2 = 0.05	731.3
323.12 K, 19000 kPa, x2 = 0.7482	696.2
323.12 K, 20000 kPa, x2 = 0.05	732
323.12 K, 20000 kPa, x2 = 0.7482	697
323.12 K, 21000 kPa, x2 = 0.05	732.7
323.12 K, 21000 kPa, x2 = 0.7482	697.8
323.12 K, 22000 kPa, x2 = 0.7482	698.6
323.12 K, 22001 kPa, x2 = 0.05	733.4
323.12 K, 23000 kPa, x2 = 0.05	734.1
323.12 K, 23000 kPa, x2 = 0.7482	699.4
323.12 K, 24000 kPa, x2 = 0.05	734.8
323.12 K, 24000 kPa, x2 = 0.7482	700.1
323.12 K, 25000 kPa, x2 = 0.05	735.4
323.12 K, 25000 kPa, x2 = 0.7482	700.9
323.15 K, 1000 kPa, x2 = 0.2346	708.9
323.15 K, 2000 kPa, x2 = 0.2346	709.9
323.15 K, 3000 kPa, x2 = 0.2346	710.8
323.15 K, 4001 kPa, x2 = 0.2346	711.7
323.15 K, 5001 kPa, x2 = 0.2346	712.6
323.15 K, 6001 kPa, x2 = 0.2346	713.5
323.15 K, 7001 kPa, x2 = 0.2346	714.4
323.15 K, 8000 kPa, x2 = 0.2346	715.2
323.15 K, 9000 kPa, x2 = 0.2346	716.1
323.15 K, 10000 kPa, x2 = 0.2346	716.9
323.15 K, 11000 kPa, x2 = 0.2346	717.7
323.15 K, 12000 kPa, x2 = 0.2346	718.5
323.15 K, 13000 kPa, x2 = 0.2346	719.4
323.15 K, 14000 kPa, x2 = 0.2346	720.1
323.15 K, 15000 kPa, x2 = 0.2346	720.9
323.15 K, 16001 kPa, x2 = 0.2346	721.7
323.15 K, 17000 kPa, x2 = 0.2346	722.5
323.15 K, 18000 kPa, x2 = 0.2346	723.2
323.15 K, 19000 kPa, x2 = 0.2346	724
323.15 K, 20000 kPa, x2 = 0.2346	724.7
323.15 K, 21033 kPa, x2 = 0.2346	725.4
323.15 K, 22034 kPa, x2 = 0.2346	726.1
323.15 K, 23036 kPa, x2 = 0.2346	726.9
323.15 K, 24037 kPa, x2 = 0.2346	727.5
323.15 K, 25039 kPa, x2 = 0.2346	728.2
333.01 K, 1001 kPa, x2 = 0.9511	654.4
333.01 K, 2000 kPa, x2 = 0.9511	655.7
333.01 K, 3000 kPa, x2 = 0.9511	656.9
333.01 K, 4000 kPa, x2 = 0.9511	658.2
333.01 K, 5000 kPa, x2 = 0.9511	659.4
333.01 K, 6000 kPa, x2 = 0.9511	660.5
333.01 K, 7000 kPa, x2 = 0.9511	661.7
333.01 K, 8000 kPa, x2 = 0.9511	662.8
333.01 K, 9000 kPa, x2 = 0.9511	663.9
333.01 K, 10000 kPa, x2 = 0.9511	665
333.01 K, 11000 kPa, x2 = 0.9511	666.1
333.01 K, 12000 kPa, x2 = 0.9511	667.1
333.01 K, 13000 kPa, x2 = 0.9511	668.2
333.01 K, 14001 kPa, x2 = 0.9511	669.2
333.01 K, 15001 kPa, x2 = 0.9511	670.2
333.01 K, 16000 kPa, x2 = 0.9511	671.2
333.01 K, 17001 kPa, x2 = 0.9511	672.1
333.01 K, 18001 kPa, x2 = 0.9511	673.1
333.01 K, 19000 kPa, x2 = 0.9511	674
333.01 K, 20000 kPa, x2 = 0.9511	674.9
333.01 K, 21001 kPa, x2 = 0.9511	675.8
333.01 K, 22000 kPa, x2 = 0.9511	676.7
333.01 K, 23001 kPa, x2 = 0.9511	677.6
333.01 K, 24000 kPa, x2 = 0.9511	678.5
333.01 K, 25000 kPa, x2 = 0.9511	679.3
333.04 K, 2001 kPa, x2 = 0.5063	688
333.04 K, 3000 kPa, x2 = 0.5063	689
333.04 K, 4000 kPa, x2 = 0.5063	690.1
333.04 K, 5000 kPa, x2 = 0.5063	691.1
333.04 K, 6000 kPa, x2 = 0.5063	692.1
333.04 K, 7000 kPa, x2 = 0.5063	693.1

From the NIST ThermoML archive (doi:10.1021/je400055v)
